Source: patent US20220152082A1, “Methods for Cancer Diagnosis, Prognosis or Treatment” (AnPac Bio-Medical Science Co., Ltd., priority 2019, published 2022)

Assays:
LINC00472 [1] = experiment: TNF-α treatment, LINC00472 expression; assay type: cell-based; conditions: breast cancer cells, TNF-α 10 ng/ml, 24 hours
Method: Total RNA was extracted from fresh-frozen tumor samples and cultured tumor cells using the Allprep DNA/RNA kit (Qiagen). RNA samples were reverse-transcribed (RT) to cDNA using the cDNA Reverse Transcription kit (LifeTech), and analyzed for LINC00472 expression with real-time PCR (qPCR).
TNF-α (Sigma-Aldrich), diluted in the culture medium immediately before experiment, was added to cultured cells with a final concentration of 10 ng/ml. The cells were incubated for 24 hours before analysis. DMSO (Sigma-Aldrich) treated cells were used as control. Total RNA and proteins were extracted for analysis of LINC00472 expression and NF-κB activation.

NF-κB = experiment: Western blot of p65 and IκBα phosphorylation, T47D; assay type: cell-based, human; conditions: 10 μM, 8 days
LINC00472 [2] = experiment: qRT-PCR of LINC00472 expression, T47D; assay type: cell-based, human; conditions: 10 μM, 8 days
Source text: Total RNA was extracted from fresh-frozen tumor samples and cultured tumor cells using the […] kit (Qiagen). RNA samples were reverse-transcribed (RT) to cDNA using the cDNA Reverse Transcription kit (LifeTech), and analyzed for LINC00472 expression with real-time PCR (qPCR). Breast cancer cells were transfected with Lincode Human LINC00472 (79940) siRNA-SMART pool (D-001320-10-05) or Lincode Non-targeting Pool (D-001320-10-05), negative control from Dharmacon, following the manufacturer's protocol for Lipofectamine RNAiMAX (Thermo Fisher Scientific). The method of transfection was known in the art. Cell lysates were prepared for analysis after 36 hours of incubation of the transfected cells. […] After eight days of culture, cells were collected, and total RNA and proteins were extracted for qRT-PCR analysis of LINC00472 and western blot of ERα and NF-κB, respectively.

Compound | LINC00472 expression (LINC00472 [1]) | phosphorylation of p65 and IκBα (NF-κB) | expression of LINC00472 (LINC00472 [2]) | expression of LINC00472 (LINC00472 [2]; listed as tamoxifen)
TNF-α | no effect |  |  | 
CC/C(=C(\c1ccc(O)cc1)c1ccc(OCCN(C)C)cc1)c1ccccc1 [4-hydroxytamoxifen, 4-Hydroxytamoxifen] |  | increased | decreased | lowered
